“Also recorded” adds a separate entry of the source.
B1: yCD2 protein: yeast cytosine deaminase with A23L/V108I/I140L substitutions, human codon optimized gene (SEQ ID NO:4) (protein, UniProt Q12178 1-158, looked up, variant A23L V108I I140L)
Cytosine deaminase: MVTGGMASKWDQKGMDIAYEEALLGYKEGGVPIGGCLINNKDGSVLGRGHNMRFQKGSATLHGEISTLENCGRLEGKVYKDTTLYTTLSPCDMCTGAIIMYGIPRCVIGENVNFKSKGEKYLQTRGHEVVVVDDERCKKLMKQFIDERPQDWFEDIGE

Tests used:
[1] = test system: recurrent anaplastic oligodendroglioma; test: Patient dog with spontaneous recurrent anaplastic oligodendroglioma, vector by CED plus 5-FC; settings: second cycle 160 mg/kg/day by mouth, stopped after fifth day
[2] = test system: Mouse CT26 tumor explants; test: 5-FC cell killing assay (MTS) on CT26 tumor explants; format: cell-based; settings: explant animal 31: CT26, AC3-yCD2(V) E5 + 5-FC, 3.5 5-FC dosings
U-87 cells = test: yCD protein level in infected U-87 cells (FIG. 4); format: cell-based, human

Row | Molecule | adverse event [1] | 5-FC sensitivity IC50 (mM) [2] | CD protein level compared to wild type yCD protein (U-87 cells)
1 | Nc1nc(=O)[nH]cc1F [Vector 5-FC, 5-fluorocytosine] | development of rash | poorly responsive; also recorded: Not sensitive | –
2 | B1 | – | – | higher levels
